Where two headings read alike, the source gives them in different places.
Legend:
[1] = Metabolic stability using human liver microsomes; type: in vitro ADME; details: pH 7.4, NADPH, 37° C., read-out: Human liver microsomes T1/2
[2] = target: human thrombin (Homo sapiens (Human), UniProt P00734); assay: Human protease biochemical activity assay: Thrombin activity testing kit
Experimental: (§1) The biochemical activity of compounds against human proteases was determined using Cathepsin K inhibitor screening kit (K150-100), Cathepsin B inhibitor screening kit (K147-100), Thrombin activity testing kit (K373-100), Caspase-2 inhibitor screening kit (K152-100), and Cathepsin D inhibitor screening kit (K148-100) according to the instructions of the kits (Biovision, USA). All experiments were carried out in triplicate. All experimental data were analyzed using GraphPad Prism software.

[3] = target: human cathepsin K (Homo sapiens (Human), UniProt P43235); assay: Human protease biochemical activity assay: Cathepsin K inhibitor screening kit
Experimental: as §1

[4] = target: human cathepsin B (Homo sapiens (Human), UniProt P07858); assay: Human protease biochemical activity assay: Cathepsin B inhibitor screening kit
Experimental: as §1

[5] = target: human caspase 2 (Homo sapiens (Human), UniProt P42575); assay: Human protease biochemical activity assay: Caspase-2 inhibitor screening kit
Experimental: as §1

[6] = target: human cathepsin D (Homo sapiens (Human), UniProt P07339); assay: Human protease biochemical activity assay: Cathepsin D inhibitor screening kit
Experimental: as §1

[7] = tested on: MERS-CoV; type: cell-based
[8] = tested on: SARS-CoV-1; type: cell-based
[9] = tested on: SARS-CoV-2 Omicron (B.1.1.529) BA.2; assay: Antiviral activity by plaque method in Vero E6-TMPRSS2 cells: SARS-CoV-2 Omicron BA.2; type: cell-based
[10] = tested on: SARS-CoV-2 Omicron (B.1.1.529) BA.5; assay: Antiviral activity by plaque method in Vero E6-TMPRSS2 cells: SARS-CoV-2 Omicron BA.5; type: cell-based
[11] = tested on: SARS-CoV-2 Omicron (B.1.1.529) BA.2; design: species or system K18-hACE2 transgenic mice; details: mouse, in vivo
[12] = in vivo; type: in vivo, ICR mice; details: for MRT inf: read-out: MRTINF—obs
[13] = in vivo; type: in vivo, beagle dogs; details: for MRT inf: read-out: MRTINF—obs
Experimental: Male ICR mice (6-8 weeks old, weighing 16-25 g), male beagle dogs (1-2 years old, weighing 9-12 kg), or male cynomolgus monkeys (6-7 years old, weighing 6-8 kg) were randomly divided into groups, with three animals for each group, and a series of test compounds were administered orally (p.o.) or intravenously (i.v.) according to the protocol in following Table 10.
The solution for gavage and intravenous administration was prepared with DMSO/HS15/PEG400/NaCl (5/3/40/52, […]). The administration time was recorded, and for each sample, approximately 0.20 mL of blood was collected by jugular vein blood collection or other appropriate methods at the pre-determined time points. The blood sample was anticoagulated with heparin sodium, and after collection, the blood was placed on ice. The sample was centrifuged to separate the plasma within 1 h (centrifugation conditions: 6800 g, 6 min, 2-8° C.). Plasma samples were stored in a −80° C. freezer before analysis. The grouping and blood collection time points are shown in Table 4, with 3 animals at each time point.

[14] = in vivo; type: in vivo, cynomolgus monkeys; details: for MRT inf: read-out: MRTINF—obs
[15] = in vivo; details: male, Sprague-Dawley, rat
[16] = target: hERG potassium ion channels (Homo sapiens (Human), UniProt Q12809); assay: hERG potassium current, whole cell patch clamp in HEK-293-hERG cells; details: 30 μM
[17] = Preliminary evaluation of in vivo safety (acute and general toxicity test); details: p.o.; 1000 mg/kg single-dose; 800, 600, 400 mg/kg twice a day for 14 consecutive days
[18] = male, mouse, in vivo, iv, ICR mice, i.v. 1 mg/kg
[19] = male, dog, in vivo, po, beagle dogs, p.o. 10 mg/kg
[20] = male, cynomolgus monkey, in vivo, iv, cynomolgus monkeys, i.v. 1 mg/kg

human cathepsin K, sequence (P43235 115-329): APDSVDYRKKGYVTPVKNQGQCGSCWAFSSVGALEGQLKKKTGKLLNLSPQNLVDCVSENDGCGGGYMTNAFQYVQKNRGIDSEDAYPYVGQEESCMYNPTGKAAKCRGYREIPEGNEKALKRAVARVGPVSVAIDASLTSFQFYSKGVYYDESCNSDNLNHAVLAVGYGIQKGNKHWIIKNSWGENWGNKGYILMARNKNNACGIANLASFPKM
human cathepsin D, sequence (P07339 65-412): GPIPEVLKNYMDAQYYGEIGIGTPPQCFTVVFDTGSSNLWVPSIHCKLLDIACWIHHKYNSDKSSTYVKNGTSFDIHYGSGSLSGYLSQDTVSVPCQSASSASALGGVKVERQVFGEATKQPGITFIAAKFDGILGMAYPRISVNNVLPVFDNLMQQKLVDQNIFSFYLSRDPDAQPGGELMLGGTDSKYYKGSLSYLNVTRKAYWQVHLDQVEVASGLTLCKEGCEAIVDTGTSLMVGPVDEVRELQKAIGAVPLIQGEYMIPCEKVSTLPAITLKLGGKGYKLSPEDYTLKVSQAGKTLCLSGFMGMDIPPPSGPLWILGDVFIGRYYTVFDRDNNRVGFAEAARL
human caspase 2, sequence (P42575 170-325): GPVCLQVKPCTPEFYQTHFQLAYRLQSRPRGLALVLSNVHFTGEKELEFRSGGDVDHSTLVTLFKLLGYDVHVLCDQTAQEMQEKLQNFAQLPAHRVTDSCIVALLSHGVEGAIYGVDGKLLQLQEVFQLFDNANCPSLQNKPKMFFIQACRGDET
human caspase 2, sequence (P42575 348-452): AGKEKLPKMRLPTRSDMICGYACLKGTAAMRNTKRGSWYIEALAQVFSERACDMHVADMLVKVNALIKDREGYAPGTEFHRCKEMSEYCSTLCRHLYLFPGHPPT
hERG potassium ion channels, sequence (Q12809 whole entry, looked up): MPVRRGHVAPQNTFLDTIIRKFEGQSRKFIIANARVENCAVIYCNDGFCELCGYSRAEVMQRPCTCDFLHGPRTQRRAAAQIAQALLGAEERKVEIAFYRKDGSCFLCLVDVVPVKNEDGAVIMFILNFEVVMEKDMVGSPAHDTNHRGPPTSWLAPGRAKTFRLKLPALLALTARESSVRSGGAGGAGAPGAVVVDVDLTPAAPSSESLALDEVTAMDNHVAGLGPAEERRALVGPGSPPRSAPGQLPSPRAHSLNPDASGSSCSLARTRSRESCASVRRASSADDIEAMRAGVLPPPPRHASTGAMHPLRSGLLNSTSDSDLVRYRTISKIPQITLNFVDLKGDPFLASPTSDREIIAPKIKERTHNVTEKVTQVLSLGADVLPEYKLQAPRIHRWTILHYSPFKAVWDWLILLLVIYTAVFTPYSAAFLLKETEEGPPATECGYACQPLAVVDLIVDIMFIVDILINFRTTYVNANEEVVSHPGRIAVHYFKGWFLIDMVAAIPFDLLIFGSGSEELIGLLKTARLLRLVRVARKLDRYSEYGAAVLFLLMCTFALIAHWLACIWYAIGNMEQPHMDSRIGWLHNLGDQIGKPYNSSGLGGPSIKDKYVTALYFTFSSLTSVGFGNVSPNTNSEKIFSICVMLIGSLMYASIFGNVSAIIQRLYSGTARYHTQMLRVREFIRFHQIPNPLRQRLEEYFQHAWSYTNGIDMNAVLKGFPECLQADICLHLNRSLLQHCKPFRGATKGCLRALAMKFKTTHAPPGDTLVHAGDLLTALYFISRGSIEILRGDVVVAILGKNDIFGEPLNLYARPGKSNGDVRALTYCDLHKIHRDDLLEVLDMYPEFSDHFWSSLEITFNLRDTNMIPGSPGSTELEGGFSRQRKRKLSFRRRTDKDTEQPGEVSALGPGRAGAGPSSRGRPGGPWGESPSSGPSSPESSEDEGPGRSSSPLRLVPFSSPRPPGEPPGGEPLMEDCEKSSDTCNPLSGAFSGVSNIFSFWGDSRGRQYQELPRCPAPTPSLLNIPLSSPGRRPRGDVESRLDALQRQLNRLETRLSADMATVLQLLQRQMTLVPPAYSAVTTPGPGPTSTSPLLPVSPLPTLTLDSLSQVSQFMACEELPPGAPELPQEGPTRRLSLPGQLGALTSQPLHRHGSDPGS

In the case of COC[C@@H](NC(=O)C1CCCC(F)(F)C1)C(=O)N[C@H](Cc1ccccc1)C(=O)C(=O)NCc1nccs1 (stereo partly drawn) [Compound 398, N—((R)-1-(((R)-3,4-dioxo-1-phenyl-4-((thiazole-2-ylmethyl)amino)butan-2-yl)amino)-3-methoxy-1-oxopropan-2-yl)-3,3-difluorocyclohexane-1-formamide], the half-life at 1 µM [1] is reported as 35.3 min, the IC50 [2] is reported as over 100 µM and the IC50 [3] is reported as over 100 µM. For the same molecule, the IC50 [4] was over 100 µM, the IC50 [5] was over 100 µM and the IC50 [6] was over 100 µM. The “anti-viral activity, times higher than Nirmatrelvir (PF-07321332)” value (“anti-viral activity” below) [7] was 1.79 times, the “anti-viral activity” value [8] was 17.14 times and the “anti-viral activity” value [9] was 2.82 times. The “anti-viral activity” value [10] was 4.00 times, the “infectious viral load in the lungs by plaque assay (in words)” value [11] was “effectively inhibited the production of infectious viral particles in the lungs” and the “inhibition of viral subgenome mRNA (sgRNA) in the lungs” value [11] was 337 times. The “lung histopathology, H&E staining (in words)” value [11] was “scattered inflammatory cell infiltration was occasionally observed”, the “reduction of sgRNA copies in the lungs” value [11] was 12 times and the “reduction of sgRNA copy in the lungs compared with mice treated with Nirmatrelvir” value [11] was “four times”. For the same molecule, the “reduction of vRNA copies in the lungs” value [11] was 16 times, the “reduction of vRNA copy in the lungs compared with mice treated with Nirmatrelvir” value [11] was “four times” and the “reduction of viral genomic RNA (vRNA) in the lungs” value [11] was 179 times. The “pharmacokinetic properties in mice (in words)” value ([12]; i.v. 1 mg/kg, p.o. 150 mg/kg) was “good pharmacokinetic properties”, the Tmax [12, 18] was 4.8 min and the MRT inf [12, 18] was 10.2 ± 1.8 min. For the same molecule, the MRT inf ([12]; male, mouse, in vivo, po, ICR mice, p.o. 150 mg/kg) was 217 ± 70.8 min, the Vssobs ([13]; beagle dogs, i.v. 1 mg/kg) was 1.41964 ± 0.16026 L/kg and the “pharmacokinetic properties in beagle dogs (in words)” value ([13]; i.v. 1 mg/kg, p.o. 10 mg/kg) was “good pharmacokinetic properties”. For the same molecule, the MRT inf ([13]; male, dog, in vivo, iv, beagle dogs, i.v. 1 mg/kg) was 28.2 ± 3 min, the Tmax [13, 19] was 60 min and the MRT inf [13, 19] was 128 ± 10.8 min. For the same molecule, the Vssobs ([14]; cynomolgus monkeys, i.v. 1 mg/kg) was 2.0658 ± 0.37439 L/kg, the “pharmacokinetic properties in cynomolgus monkeys (in words)” value ([14]; i.v. 1 mg/kg, p.o. 10 mg/kg) was “good pharmacokinetic properties” and the Tmax [14, 20] was 4.8 min. For the same molecule, the clearance [14, 20] was 2000 ± 257 mL/min/kg, the MRT inf [14, 20] was 54 ± 10.8 min and the MRT inf ([14]; male, cynomolgus monkey, in vivo, po, cynomolgus monkeys, p.o. 10 mg/kg) was 283 ± 53.4 min. It also gave an MRT inf ([15]; iv, 1 mg/kg) of 140 ± 13.2 min, a Tmax ([15]; iv, 1 mg/kg) of 4.8 min and an MRT inf ([15]; po, 10 mg/kg) of 396 ± 53.4 min. For the same molecule, the Tmax ([15]; po, 10 mg/kg) was 240 ± 120 min, the “The average inhibition rate on hERG current” value [16] was 1.28% and the “body weight and general condition during the administration period” value [17] was 1. During the administration period, no abnormal body.
